Data taken from PubChem BioAssay AID1996.
In brackets after ≈: the same amount, converted by molar mass.

Conditions: buffer; pH 7.4; 200.0 µM

Compound | solubility kinetic [µg/mL]
O=C(NCCNc1ccc([N+](=O)[O-])cc1)c1ccccc1F | 3.8 (≈ 12.5 µM)
O=C(Nc1ccncc1)c1cc2ccccc2cc1O | 5.6 (≈ 21.2 µM)
N/C(=N\OC(=O)c1ccccc1F)c1ccc([N+](=O)[O-])cc1 | 2.3 (≈ 7.58 µM)
O=C(CN1CCN(S(=O)(=O)c2ccccc2F)CC1)N1CCc2ccccc2C1 | 12.8 (≈ 30.7 µM)
Cl.O=C(O)C1CCN(Cc2cccnc2)CC1 | > 38.5
Cc1cccc(C)c1N1C(=O)C(Cl)=C(N2CCCC2)C1=O | 31.2 (≈ 102 µM)
Cc1ccc(S(=O)(=O)n2ccc3c2CCCC3=O)cc1 | > 43.4
COc1ccccc1NC(=O)COC(=O)C1CC(=O)N(c2ccc3c(c2)OCCO3)C1 (stereo unspecified) | 37.8 (≈ 88.6 µM)
Cc1[nH]c(=O)nc(SCc2cccc(Cl)c2)c1C#N | 12.2 (≈ 41.8 µM)
Cc1ccc(OCC(=O)NCCNC(=O)c2cnccn2)cc1 | 40.9 (≈ 130 µM)
CC(C(=O)Nc1ccc(Cl)cc1)N1C(=O)NC2(CCCC2)C1=O (stereo unspecified) | 25.8 (≈ 76.8 µM)
O=C(NC1CCN(C(=O)Nc2ccc(F)cc2)CC1)c1cccc(F)c1 | 6 (≈ 16.7 µM)
CCOC(=O)c1ccc(NC(=O)NCCc2cnc[nH]2)cc1 | > 45.3
Cc1ccc2cccc(OCc3cccc([N+](=O)[O-])c3)c2n1 | 23.6 (≈ 80.2 µM)
CCOc1ccc(NC(=O)NCc2ccc3c(c2)OCO3)cc1 | 1.8 (≈ 5.73 µM)
Cc1nc(/C(N)=N/OC(=O)Cc2ccccc2)no1 | 24.4 (≈ 93.8 µM)
CCn1cc(C2=NC(CC(C)C)CO2)c2ccccc21 (stereo unspecified) | 9.7 (≈ 35.9 µM)
O=C1CN(C(=O)COc2ccccc2)c2ccccc2N1 | > 42.3
Cc1ccc(-c2cn(-c3ccccc3F)c(=S)[nH]2)cc1 | 1.1 (≈ 3.87 µM)
Fc1cc2[nH]cnc2cc1Cl | > 25.6
CCc1nnc(NC(=O)CCNC(=O)c2ccccc2Cl)s1 | > 50.8
COc1ccccc1/C(C)=N/Oc1cc(N)cc([N+](=O)[O-])c1 | 1.7 (≈ 5.64 µM)
O=C(Nc1cccc(Br)c1)c1cc(=O)c2ccccc2o1 | < 0.7
Cc1ccccc1CC(=O)N1CCCc2ccccc21 | 36.5 (≈ 138 µM)
O=C(Oc1ccc(F)cc1)N1CCOCC1 | > 33.8

Compound | solubility kinetic [µg/mL]
O=C(NCc1ccc(Cl)cc1)N1CCOCC1 | > 38.2
O=C(CN1CCCCC1)N1CCN(c2ccccc2)CC1 | > 43.1
Cc1ccc(C)c(NC(=O)COC(=O)c2ccc[n+]([O-])c2)c1 | > 45
COc1ccc(Cn2c(=O)cc(N)n(-c3ccccc3C)c2=O)cc1 | > 50.6
CN(CC(=O)Nc1ccccc1C(F)(F)F)C(=O)CSc1nnc(-c2ccncc2)n1C | > 69.7
O=C(NC1CCCCC1)C(=S)N1CCCC1 | > 36.1
CCN(CC(=O)NCCN1CCOCC1)S(=O)(=O)c1ccc(F)cc1 | > 56
COc1ccccc1C1=NOC(COC(=O)c2ccc([N+](=O)[O-])cc2)C1 (stereo unspecified) | < 0.4
O=C(NCc1nc2ccccc2[nH]1)c1ccccc1F | > 40.4
CN(C)c1ccc(NC(=O)Nc2csc3ccccc23)cc1 | 0.7 (≈ 2.25 µM)
CC(C)n1c(N)c(C#N)c2ccc([N+](=O)[O-])cc2c1=O | 1.6 (≈ 5.88 µM)
O=C(CC1CCCCC1)NCc1ccc(Cl)cc1 | 2.4 (≈ 9.03 µM)
O=C(Nc1ccc(F)cc1)c1cc2c(s1)CCCC2 | < 0.6
C=CCNC(=S)NC(CC(=O)OC)c1ccc2c(c1)OCO2 (stereo unspecified) | 30.3 (≈ 94 µM)
O=C1c2ccsc2SCCN1Cc1c(F)cccc1Cl | 44.4 (≈ 135 µM)
CC(=O)Nc1ccc(NC(=O)COC(=O)c2ccccn2)cc1 | > 47
O=C(COC(=O)c1ccc(S(=O)(=O)N2CCCC2)cc1)NCCc1ccc(F)cc1 | 6.2 (≈ 14.3 µM)
CC1NC(=S)N(Cc2ccccc2)C1=O (stereo unspecified) | 31.9 (≈ 145 µM)
CCSCc1nnc(SCC(=O)Nc2nccs2)n1CC | > 51.5
Cc1ccc(NS(=O)(=O)c2ccc3c(c2)n(C)c(=O)n3C)cc1 | 6.3 (≈ 19 µM)
CCC(C(=O)OC)n1cnc2scc(-c3ccc(C)cc3)c2c1=O (stereo unspecified) | 29.3 (≈ 85.6 µM)
O=C(O)c1ccc2cc(-c3ccccc3)[nH]c2c1 | 31.2 (≈ 132 µM)
COP(=O)(OC)C(Nc1ccccc1)c1ccccc1 (stereo unspecified) | > 43.7
O=C1/C(=C\c2ccncc2)N2CCC1CC2 | > 32.1
O=C(COC(=O)/C=C/c1cccc(F)c1)NC(=O)NCc1ccccc1 | 2.8 (≈ 7.86 µM)

The next lines start with the values.

solubility kinetic [µg/mL] | Compound
> 39.5 | COc1cc(C=O)ccc1OCC(=O)N1CCCC1
1.5 (≈ 4.35 µM) | COc1ccc(C2c3ccsc3CCN2C(=O)NC(C)(C)C)cc1 (stereo unspecified)
43.5 (≈ 139 µM) | CN1CCN(c2cc(C(F)(F)F)nc3ccc(F)cc23)CC1
32.5 (≈ 106 µM) | COc1ccc(Cl)cc1C(=O)O/N=C(\N)c1ccncc1
6.4 (≈ 18.9 µM) | CCOC(=O)CCCCCN1C(=O)c2cccc3cccc(c23)C1=O
< 0.6 | O=C(Cc1ccc(-c2ccccc2)cc1)NC1CCCC1
1.1 (≈ 4.15 µM) | O=C(Nc1cccc(Cl)c1)NC1CC2CCC1C2 (stereo unspecified)
> 54.2 | Cc1nn(CC(=O)N2CCN(C(=O)c3ccco3)CC2)c(C)c1[N+](=O)[O-]
46.5 (≈ 137 µM) | O=C1CC(C(=O)N2CCCc3ccccc32)CN1c1ccc(F)cc1 (stereo unspecified)
8.5 (≈ 18.7 µM) | CC(=O)c1cccc(NC(=O)c2cc(=O)[nH]c3ccc(S(=O)(=O)N4CCOCC4)cc23)c1
> 49.4 | CCOc1ccc(CCNC(=O)/C=C/c2ccco2)cc1OCC
> 45.2 | Cc1cc(C)nc(SCC(=O)N/N=C/c2cccnc2)n1
3.8 (≈ 13 µM) | O=C(Nc1cccc([N+](=O)[O-])c1)NC1CCCCCCC1
> 49.4 | CC1(C)Cc2cccc(OCC(=O)NCc3ccccc3F)c2O1
> 43.9 | O=C(NCCOc1ccccc1)C(=O)NCC1CCCO1 (stereo unspecified)
10.8 (≈ 25.2 µM) | Cc1ccc(S(=O)(=O)N2CCC[C@H]2C(=O)OCC(=O)N2CCc3ccccc32)cc1
< 0.7 | Oc1ccc(Br)cc1C1Nc2ccccc2S1 (stereo unspecified)
> 31.8 | Fc1ccccc1-c1nc2ccccc2[nH]1

solubility kinetic [µg/mL] | Compound
< 0.7 | CCOc1cccc(/C=C/c2ccc3cccc(O)c3n2)c1O
11.1 (≈ 34.4 µM) | COc1ccc(/C=C/C(=O)NC(=S)N2CCSCC2)cc1
> 38 | Brc1ccc(COn2ccnc2)cc1
2.1 (≈ 6.47 µM) | CC(C)C(NC(=O)CN1C(=O)c2cccc3cccc1c23)C(C)C
> 45.8 | O=C(CNC(=O)c1cccc(F)c1)N/N=C/c1cccs1
> 35.3 | COc1cccc(NC(=O)C2CCOC2=O)c1 (stereo unspecified)
> 52.3 | CCCN(CC1CCCO1)C(=O)CCc1nnc(-c2cc(C)on2)o1 (stereo unspecified)
< 0.2 | COc1ccc(Cn2cnc3c4cc(F)ccc4n(C)c3c2=O)cc1
> 44 | CC(C)(C)n1cnc2cc(NC(=O)c3ccccc3)ccc21
> 36.9 | Nc1nc(C23CC4CC(CC(C4)C2)C3)[nH]c(=O)n1
2.4 (≈ 6.91 µM) | COc1cc(C(=O)OCC(C)=O)cc(NC(=O)c2ccco2)c1OC
> 40.8 | O=[N+]([O-])c1ccccc1OC/C(=N\O)c1ccccc1
33.2 (≈ 127 µM) | Oc1ccc(NC(=S)Nc2ccc(F)cc2)cc1
1.4 (≈ 4.46 µM) | CC(C)(CNc1ccc([N+](=O)[O-])cc1Cl)N1CCOCC1
> 43.1 | O=S(=O)(NCc1nc2ccccc2[nH]1)c1ccccc1
38.1 (≈ 131 µM) | Cc1c(C(=O)N2CCC[C@H]2C(N)=O)oc2c(F)cccc12
> 41.5 | COCCNC(=O)c1ccc(-c2csc(C)n2)cc1
> 43.1 | Cc1ccsc1C(=O)N1CCN(c2ccccn2)CC1
